T1: α-NAGA mutant (Homo sapiens, UniProt P17050, A191L/S188E)
T1 sequence (P17050 with tags, fused parts or gaps S188E/A191L): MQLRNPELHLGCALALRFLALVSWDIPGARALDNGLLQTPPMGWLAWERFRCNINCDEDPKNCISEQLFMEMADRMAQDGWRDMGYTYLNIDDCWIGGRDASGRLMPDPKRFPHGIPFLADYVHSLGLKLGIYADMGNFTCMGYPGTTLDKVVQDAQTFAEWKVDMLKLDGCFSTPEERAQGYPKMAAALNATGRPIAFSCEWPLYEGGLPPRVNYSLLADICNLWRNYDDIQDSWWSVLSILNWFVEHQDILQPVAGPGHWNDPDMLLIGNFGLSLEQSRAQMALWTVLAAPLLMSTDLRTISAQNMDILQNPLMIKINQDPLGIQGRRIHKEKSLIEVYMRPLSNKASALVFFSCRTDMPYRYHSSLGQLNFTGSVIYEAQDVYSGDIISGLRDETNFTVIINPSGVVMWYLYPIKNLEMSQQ

T2: α-NAGA mutant (SEQ ID NO:8) (Homo sapiens, UniProt P17050, A191L/S188E)
T2 sequence (P17050 with tags, fused parts or gaps S188E/A191L): T1 sequence (P17050 with tags, fused parts or gaps S188E/A191L)

B1: α-NAGA mutant: mutant human α-N-acetylgalactosaminidase, serine 188 to glutamic acid and alanine 191 to leucine, having α-galactosidase activity (SEQ ID NO:8 used) (protein)
chain: T1 sequence (P17050 with tags, fused parts or gaps S188E/A191L)

What was measured:
[1] = target: T1, α-NAGA mutant; assay: Screening of inhibitor (2): inhibition of enzyme activity of α-NAGA mutant; type: biochemical; details: 0.1, 1, or 10 μM compound, pH 4.6, 37° C., 30 minutes; FIG. 1
Protocol: The second screening was carried out as follows: DGJ, GBS, N-C-DGJ, N-DGJ, or N-HE-DGJ dissolved in purified water or DMSO was added to 25 ng of an α-NAGA mutant and 4 mM 4-methylumbelliferylα-D-galactopyranoside dissolved in 0.1 M phosphate-citrate buffer (pH 4.6) such that a concentration of DGJ, GBS, N-C-DGJ, N-DGJ, or N-HE-DGJ became 0.1, 1, or 10 μM, and the mixture thus obtained was caused to react at 37° C. for 30 minutes (the total amount was 50 μl). After the reaction was finished, 950 μl of 0.2 M glycine buffer (pH 10.7) was added to stop the reaction. Then, released 4-methylumbelliferone was measured at an excitation wavelength of 355 nm and at a fluorescence wavelength of 460 nm with use of Wallac 1420 ARVO MX Multilabel Counter. Remaining enzyme activity was calculated based on the assumption that an enzyme activity value obtained in a case where purified water or DMSO is added instead of the inhibitor candidate compound is 100%. FIG. 1 is a view illustrating inhibition of enzyme activity of an α-NAGA mutant by DGJ.

[2] = target: T1, α-NAGA mutant; assay: Calculation of inhibition constant Ki (Lineweaver-Burk plot); type: biochemical; details: substrate 1-8 mM; DGJ 100-400 nM, GBS 200-800 nM; pH 4.6; FIG. 2
Protocol: Enzymatic analysis was carried out by using, as a reaction liquid, 50 ng of an α-NAGA mutant and 0.1 M phosphate-citrate buffer (pH 4.6) in which a 4-methylumbelliferylα-D-galactopyranoside substrate was dissolved at any of concentrations (1, 2, 4, 6, and 8 mM) (the total amount was 50 μl). In measuring inhibitory activity, reaction was carried out with a reaction liquid which contained DGJ at a concentration of 100, 200, or 400 nM or GBS at a concentration of 200, 400, or 800 nM. After the reaction was carried out at 37° C. for 10 minutes, 950 μl of 0.2 M glycine buffer (pH 10.7) was added to stop the reaction. Then, released 4-methylumbelliferone was measured at an excitation wavelength of 355 nm and at a fluorescence wavelength of 460 nm with use of Wallac 1420 ARVO MX Multilabel Counter. From these values, a Lineweaver-Burk plot was prepared and an inhibition constant Ki was calculated from slopes in the plot which correspond to respective concentrations of the inhibitor.

[3] = target: T2, α-NAGA mutant (SEQ ID NO:8); assay: Screening of inhibitor (1): remaining enzyme activity of α-NAGA mutant with 4-methylumbelliferyl α-D-galactopyranoside; type: biochemical; details: 400 μM compound, pH 4.6, 37° C., 30 minutes
Protocol: The screening of inhibitor was carried out as follows: An inhibitor candidate compound dissolved in purified water or DMSO was added to 20 ng of an α-NAGA mutant (SEQ ID NO:8) and 4 mM 4-methylumbelliferylα-D-galactopyranoside dissolved in 0.1 M phosphate-citrate buffer (pH 4.6) such that a concentration of the inhibitor candidate compound became 0.8, 1, or 400 μM, and the mixture thus obtained was caused to react at 37° C. for 30 minutes (the total amount was 50 μl). After the reaction, 950 μl of 0.2 M glycine buffer (pH 10.7) was added to stop the reaction. Then, released 4-methylumbelliferone was measured at an excitation wavelength of 355 nm and at a fluorescence wavelength of 460 nm with use of Wallac 1420 ARVO MX Multilabel Counter. Remaining enzyme activity was calculated based on the assumption that an enzyme activity value obtained in a case where purified water or DMSO is added instead of the inhibitor candidate compound is 100%.

[4] = system: Fabry disease model mouse; details: Fabry disease model mouse to which the α-NAGA mutant has been administered; cited from earlier work

Row | Molecule | inhibition of enzyme activity of an α-NAGA mutant (remaining enzyme activity) [1] | inhibition pattern from inhibition constant Ki [2] | inhibition effect on α-NAGA mutant (remaining enzyme activity) [3] | degradation of Gb3 and Lyso-Gb3 accumulated in organs [4]
1 | O=S(=O)(O)C1NC(CO)C(O)C(O)C1O (stereo not shown) [GBS, galactostatin bisulfite] | had the effect of inhibiting activity of an α-NAGA mutant | inhibitory activity by competitive inhibition | the inhibition effect was seen | –
2 | B1 | – | – | – | Gb3 and Lyso-Gb3 which are accumulated in organs are degraded
